In US20240294509A1, “PYRIDAZINONE COMPOUND AS PARP7 INHIBITOR” (Euregen Biopharma Co., Ltd., priority 2021, published 2024):

What was measured:
NCI-H1373 cells = experiment: Inhibitory effect on the proliferation of NCI-H1373 cells (CellTiter-Glo); format: cell-based; conditions: Homo sapiens, 144 h, 6 days treatment
Description: 1. Experimental Principle: NCI-H1373 cells are a type of lung adenocarcinoma cells that overexpress PARP7.
2. Experimental Materials: NCI-H1373 cells were obtained from Nanjing Cobioer Biosciences Co., Ltd. CellTiter-Glo® (cell viability chemiluminescent assay reagent) was purchased from Promega (Catalog No. G7571). RPMI-1640 medium was obtained from ATCC (Catalog No. 30-2001). RPMI-1640 medium, penicillin/streptomycin antibiotics were purchased from WISENT. Fetal bovine serum was obtained from Biosera. The Nivo multimode reader was procured from PerkinElmer.
3. Experimental Method: NCI-H1373 cells were seeded in a white 96-well plate with 80 μL of cell suspension per well, containing 3000 NCI-H1373 cells. The cell plate was incubated overnight in a carbon dioxide (CO2) incubator.
The test compounds were serially diluted 5-fold to the 9th concentration, ranging from 2 mmol/L to 5.12 nmol/L, for a duplicate assay. 78 μL of culture medium was added to the intermediate plate, and then, according to the corresponding positions, 2 μL of each gradient-diluted compound was transferred to the intermediate plate. After thorough mixing, 20 μL of the compound solution was transferred to the cell plate. The compound concentration range in the cell plate ranged from 10 μmol/L to 0.0256 nmol/L. The cell plate was incubated in a CO2 incubator for 6 days.
Another cell plate was prepared, and the signal values were read on the day of dosing to obtain the maximum value referred to as Max in the following equation for data analysis. 25 μL of cell viability chemiluminescent assay reagent was added to each well of this cell plate, and it was incubated at room temperature for 10 minutes to stabilize the luminescent signal. Readings were taken using a multimode reader.
After 6 days of treatment, 25 μL of cell viability chemiluminescent assay reagent was added to each well of the cell plate, and it was incubated at room temperature for 10 minutes to stabilize the luminescent signal. Readings were taken using a multimode reader.
The IC50 value was determined by four-parameter curve fitting (obtained by using the “log(inhibitor) vs. response—Variable slope” model in GraphPad Prism).

[1] = Pharmacokinetic properties in SD rats after single intravenous injection and oral administration; format: in vivo; conditions: SD male rats
Description: 1. Test purpose: to determine the pharmacokinetic characteristics of some of the example compound of the present invention in SD rats after single intravenous injection(IV) and oral administration(PO) by LC-MS/MS method.
2. Test material: the test drug is self-made from the example compounds of the present invention; Positive control compound RBN2397 purchased from Shanghai BioChemPartner Biotechnology Co., Ltd. SD male rats were obtained from the Laboratory Animal Management Department of Shanghai Family Planning Research Institute. Animal production license number (SCXK (Shanghai) 2018-0006).
Preparation of 0.5% methyl cellulose: 5 g of methyl cellulose were weighed and dissolved in 1000 mL of purified water.
Preparation of oral formulation: A required amount of test compound was weighed and dissolved in 0.5% methyl cellulose solution to obtain a suspension or solution of 0.5 mg/mL or 1.0 mg/mL.
Preparation of intravenous injection formulation: A required amount of test compound was weighed, and dissolved in 0.5 mL of dimethyl sulfoxide to prepare a solution of 4 mg/mL. 0.25 mL of the above solution was added into 0.5 mL of polyethylene glycol 15 hydroxystearate (solutol) and 4.25 mL of physiological saline to obtain a solution of 0.2 mg/mL.
Administration: SD male rats were orally administered (PO) after fasting overnight, and fed 4 hours after administration.
Sample Collection: blood was collected through jugular vein or other suitable vein, and 0.2 mL of blood was collected at each time point. Samples were placed into tubes containing ethylenediamine tetraacetic acid dipotassium salt and kept on ice before centrifugation. Within 1 hour after blood collection, the blood samples were centrifuged at 2-8° C. and 6800 g for 6 minutes and stored at −80° C. The time point for blood collection was 0.083, 0.25, 0.5, 1, 2, 4, 8 and 24 hours after intravenous administration, and 0.25, 0.5, 1, 2, 4, 6, 8 and 24 hours after oral administration.
The intravenous dosage was 1 mg/kg, and the pharmacokinetic parameters for oral administration were standardized to a 1 mg/kg dose.

PARP1 = PARP1 (Homo sapiens (Human), UniProt P09874); experiment: biochemical
Sequence of PARP1 (P09874 whole entry): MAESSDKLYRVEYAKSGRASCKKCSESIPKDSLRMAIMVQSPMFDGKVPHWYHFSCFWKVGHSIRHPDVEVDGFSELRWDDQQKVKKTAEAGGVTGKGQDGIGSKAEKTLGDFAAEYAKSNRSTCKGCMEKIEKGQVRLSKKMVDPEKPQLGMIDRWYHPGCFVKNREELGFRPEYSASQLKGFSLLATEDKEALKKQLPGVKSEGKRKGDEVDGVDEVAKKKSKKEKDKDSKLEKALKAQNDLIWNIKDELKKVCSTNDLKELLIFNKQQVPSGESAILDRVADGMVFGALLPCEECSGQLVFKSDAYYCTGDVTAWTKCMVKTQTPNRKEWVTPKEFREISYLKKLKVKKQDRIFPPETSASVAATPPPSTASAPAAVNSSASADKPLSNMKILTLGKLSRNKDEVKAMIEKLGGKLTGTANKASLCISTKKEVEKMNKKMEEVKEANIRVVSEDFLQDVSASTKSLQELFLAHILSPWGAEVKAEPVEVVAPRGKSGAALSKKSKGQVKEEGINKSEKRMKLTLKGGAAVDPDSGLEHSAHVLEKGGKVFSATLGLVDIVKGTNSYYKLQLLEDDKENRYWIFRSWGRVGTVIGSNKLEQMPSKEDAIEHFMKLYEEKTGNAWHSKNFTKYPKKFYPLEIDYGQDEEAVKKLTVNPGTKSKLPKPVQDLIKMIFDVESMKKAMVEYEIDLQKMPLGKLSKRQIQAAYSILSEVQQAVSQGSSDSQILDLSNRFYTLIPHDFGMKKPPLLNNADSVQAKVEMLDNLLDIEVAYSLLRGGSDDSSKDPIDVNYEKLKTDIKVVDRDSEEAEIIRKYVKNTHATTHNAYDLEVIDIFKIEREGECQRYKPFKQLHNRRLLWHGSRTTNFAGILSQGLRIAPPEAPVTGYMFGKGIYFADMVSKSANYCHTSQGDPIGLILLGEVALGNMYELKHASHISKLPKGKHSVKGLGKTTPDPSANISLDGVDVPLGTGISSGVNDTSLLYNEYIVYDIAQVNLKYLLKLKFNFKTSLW
Description: (§1) Experimental Principle: The inhibitory effect of the test substance on the enzymatic activity of PARP1/7 is assessed by using an Enzyme-Linked Immunosorbent Assay (ELISA).
(§2) (1) Pre-coating: Add 100 μL of a PBS buffer (10 mM NaH2PO4, 10 mM Na2HPO4, 150 mM NaCl, pH 7.4) containing 20 g/mL of histone to each well of a 96-well plate, and incubate at 4° C. overnight.
(§3) (3) Add 5 μL of the test substance or solvent to each well.
(§4) (4) Add 20 μL of(PARP1 or PARP7 (50 ng/well), and incubate at 30° C. for 1 hour.
(§5) (5) Add 50 μL of streptavidin-HRP to the reaction mixture, and incubate at 30° C. for 30 minutes.
(§6) (6) Finally, add 100 μL of a citrate buffer containing H2O2 and luminol (0.1 M, pH 5.4), and measure the luminescent signal using a microplate reader (Molecular Devices SpectraMax M5).
(§7) (7) Calculate the inhibition rate of PARP1 or PARP7 enzyme activity as [(control group−treatment group)/control group]×10000. Fit the dose-response data with standard dilutions using Prism GraphPad software and calculate the concentration required to achieve 5000 inhibition of PARP1 or PARP7 enzyme activity (IC50).

PARP7 = PARP7 (Homo sapiens (Human), UniProt Q7Z3E1); experiment: biochemical
Sequence of PARP7 (Q7Z3E1 whole entry): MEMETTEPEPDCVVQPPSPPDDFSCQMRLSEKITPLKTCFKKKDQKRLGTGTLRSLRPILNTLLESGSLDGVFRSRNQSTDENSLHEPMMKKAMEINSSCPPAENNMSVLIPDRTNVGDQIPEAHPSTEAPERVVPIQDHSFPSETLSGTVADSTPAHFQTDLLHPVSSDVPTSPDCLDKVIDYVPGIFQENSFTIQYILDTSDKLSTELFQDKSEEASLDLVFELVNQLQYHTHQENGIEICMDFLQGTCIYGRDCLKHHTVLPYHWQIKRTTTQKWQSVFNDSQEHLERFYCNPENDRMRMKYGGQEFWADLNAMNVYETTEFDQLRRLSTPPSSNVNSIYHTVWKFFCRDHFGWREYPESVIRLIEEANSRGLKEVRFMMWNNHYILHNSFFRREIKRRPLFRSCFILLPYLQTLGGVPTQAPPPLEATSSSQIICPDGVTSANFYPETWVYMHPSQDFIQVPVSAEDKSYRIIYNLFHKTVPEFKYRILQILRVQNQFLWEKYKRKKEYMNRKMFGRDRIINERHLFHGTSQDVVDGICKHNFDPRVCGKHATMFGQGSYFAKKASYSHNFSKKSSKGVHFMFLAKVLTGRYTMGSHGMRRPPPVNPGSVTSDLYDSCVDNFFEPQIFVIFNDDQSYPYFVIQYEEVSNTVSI
Description: as §1, §2, §3, §4, §5, §6, §7

[2] = rat, plasma, Intravenous injection, 1 mg/kg
[3] = rat, plasma, Oral gavage, standardized to a 1 mg/kg dose

- IC50 (NCI-H1373 cells): 73.6 nM
- F ([1]; Oral gavage, oral bioavailability): 21.18%
- AUC(0-inf) [1, 2]: 482 ng·h/mL
- Cmax [1, 2]: 1210 ng/mL
- clearance [1, 2]: 36.9 mL/min/kg
- half-life [1, 2]: 30.6 min
- AUC(0-inf) [1, 3]: 111 ng·h/mL
- Cmax [1, 3]: 40.2 ng/mL
- IC50 (PARP1): 816 nM
- IC50 (PARP7): 3.4 nM
Structure (SMILES): O=C(CC[C@@H]1C[C@@H](Oc2ccccc2)CN1c1cc(C(F)(F)F)c(=O)[nH]n1)N1CCN(c2ncc(C(F)(F)F)cn2)CC1 [Compound 21]
